Source: patent US10287295B2, “TGF-β inhibitors” (Rigel Pharmaceuticals, Inc., priority 2015, dated 2019)

What was measured:
[1] = tested on: GDF8 signaling (GDF pSMAD, MPC11); experiment: AlphaScreen SureFire SMAD3 (p-Ser423/425) assay, inhibition of GDF8 signaling; assay type: cell-based; conditions: Mus musculus, MPC-11, inhibition of GDF8 signaling, p-SMAD3 readout
[2] = tested on: TGF-β signaling (TGF-β pSMAD, MPC-11); experiment: AlphaScreen SureFire SMAD3 (p-Ser423/425) assay, inhibition of TGF-β signaling; assay type: cell-based; conditions: Mus musculus, MPC-11, inhibition of TGF-β signaling, p-SMAD3 readout

Structure (SMILES)	IC50 [1]	IC50 [2]
Cc1nc(-c2ccc(F)c(F)c2)c(-c2ccc3nccn3c2)[nH]1 [Compound 87, 6-(4-(3,4-Difluorophenyl)-2-methyl-1H-imidazol-5-yl)imidazo[1,2-a]pyridine]	330 nM	3460 nM
Fc1ccc(-c2nc[nH]c2-c2ccc3nccn3c2)cc1 [Compound 14, 6-(4-(4-Fluorophenyl)-1H-imidazol-5-yl)imidazo[1,2-a]pyridine]	610 nM	1820 nM
Cc1nc(-c2ccc(F)c(F)c2)c(-c2ccc3nccnc3c2)[nH]1 [Compound 89, 6-(4-(3,4-Difluorophenyl)-2-methyl-1H-imidazol-5-yl)quinoxaline]	430 nM	4190 nM
CCc1nc(-c2ccc(F)cc2)c(-c2ccc3nccn3c2)[nH]1 [Compound 123, 6-(2-Ethyl-4-(4-fluorophenyl)-1H-imidazol-5-yl)imidazo[1,2-a]pyridine]	740 nM	9370 nM
Fc1ccc(-c2nc[nH]c2-c2ccc3ncccc3c2)cc1 [Compound 38, 6-(4-(4-Fluorophenyl)-1H-imidazol-5-yl)quinoline]	930 nM	2550 nM
Cc1nc(-c2cccc(Cl)c2)c(-c2ccc3ncnn3c2)[nH]1 [Compound 103, 6-(4-(3-Chlorophenyl)-2-methyl-1H-imidazol-5-yl)-[1,2,4]triazolo[1,5-a]pyridine]	130 nM	690 nM
CCc1nc(-c2ccc(F)c(C)c2)c(-c2ccc3ncsc3c2)[nH]1 [Compound 109, 6-(2-Ethyl-4-(4-fluoro-3-methylphenyl)-1H-imidazol-5-yl)benzo[d]thiazole]	150 nM	870 nM
CCc1nc(-c2ccc(F)c(F)c2)c(-c2ccc3cn[nH]c3c2)[nH]1 [Compound 131, 6-(4-(3,4-Difluorophenyl)-2-ethyl-1H-imidazol-5-yl)-1H-indazole]	920 nM	3910 nM
CCc1nc(-c2ccc(F)c(C)c2)c(-c2ccc3[nH]ncc3c2)[nH]1 [Compound 106, 5-(2-Ethyl-4-(4-fluoro-3-methylphenyl)-1H-imidazol-5-yl)-1H-indazole]	150 nM	920 nM
Cn1cnc(-c2ccc(F)cc2)c1-c1ccc2ncn(C)c2c1 [Compound 50, 6-(4-(4-Fluorophenyl)-1-methyl-1H-imidazol-5-yl)-1-methyl-1H-benzo[d]imidazole]	1020 nM	1870 nM
Cc1cccc(-c2nc(C)n(C)c2-c2ccc3ncn(C)c3c2)c1 [Compound 58, 6-(1,2-Dimethyl-4-(m-tolyl)-1H-imidazol-5-yl)-1-methyl-1H-benzo[d]imidazole]	990 nM	9640 nM
Cc1nc(-c2ccc(F)c(C)c2)c(-c2ccc3nccnc3c2)[nH]1 [Compound 76, 6-(4-(4-Fluoro-3-methylphenyl)-2-methyl-1H-imidazol-5-yl)quinoxaline]	190 nM	1210 nM
Cc1cccc(-c2ncn(C)c2-c2ccc3[nH]ncc3c2)c1 [Compound 41, 5-(1-Methyl-4-(m-tolyl)-1H-imidazol-5-yl)-1H-indazole]	20 nM	60 nM
Cn1cnc2ccc(-c3[nH]cnc3-c3cccc(Cl)c3)cc21 [Compound 24, 6-(4-(3-Chlorophenyl)-1H-imidazol-5-yl)-1-methyl-1H-benzo[d]imidazole]	10 nM	10 nM
Cc1cc(-c2ncn(C)c2-c2ccc3ncsc3c2)ccc1F [Compound 9, 6-(4-(4-Fluoro-3-methylphenyl)-1-methyl-1H-imidazol-5-yl)benzo[d]thiazole]	60 nM	330 nM
Cc1nc(-c2ccc(F)cc2)c(-c2ccc3ncsc3c2)[nH]1 [Compound 80, 6-(4-(4-Fluorophenyl)-2-methyl-1H-imidazol-5-yl)benzo[d]thiazole]	220 nM	1630 nM
Cc1cc(-c2nc(C)n(C)c2-c2ccc3ncn(C)c3c2)ccc1F [Compound 54, 6-(4-(4-Fluoro-3-methylphenyl)-1,2-dimethyl-1H-imidazol-5-yl)-1-methyl-1H-benzo[d]imidazole]	410 nM	3100 nM
Cc1nc(-c2ccc(F)cc2)c(-c2ccc3nccn3c2)[nH]1 [Compound 81, 6-(4-(4-Fluorophenyl)-2-methyl-1H-imidazol-5-yl)imidazo[1,2-a]pyridine]	390 nM	2620 nM
CCc1nc(-c2ccc(F)cc2)c(-c2ccc3[nH]ncc3c2)[nH]1 [Compound 119, 5-(2-Ethyl-4-(4-fluorophenyl)-1H-imidazol-5-yl)-1H-indazole]	410 nM	4740 nM
Cc1nc(-c2ccc(F)cc2)c(-c2ccc3nccnc3c2)[nH]1 [Compound 82, 6-(4-(4-Fluorophenyl)-2-methyl-1H-imidazol-5-yl)quinoxaline]	480 nM	3270 nM
Cc1nc(-c2cc(F)c(F)cc2F)c(-c2ccc3[nH]ncc3c2)[nH]1 [Compound 97, 5-(2-Methyl-4-(2,4,5-trifluorophenyl)-1H-imidazol-5-yl)-1H-indazole]	100 nM	540 nM
Fc1cccc(-c2nc[nH]c2-c2ccc3cn[nH]c3c2)c1 [Compound 28, 6-(4-(3-Fluorophenyl)-1H-imidazol-5-yl)-1H-indazole]	50 nM	60 nM
Cc1cccc(-c2ncn(C)c2-c2ccc3ncn(C)c3c2)c1 [Compound 43, 1-Methyl-6-(1-methyl-4-(m-tolyl)-1H-imidazol-5-yl)-1H-benzo[d]imidazole]	190 nM	530 nM
Cc1nc(-c2ccc(F)c(F)c2)c(-c2ccc3ncn(C)c3c2)[nH]1 [Compound 85, 6-(4-(3,4-Difluorophenyl)-2-methyl-1H-imidazol-5-yl)-1-methyl-1H-benzo[d]imidazole]	180 nM	670 nM
Cn1cnc(-c2ccc(F)c(F)c2)c1-c1ccc2ncsc2c1 [Compound 67, 6-(4-(3,4-Difluorophenyl)-1-methyl-1H-imidazol-5-yl)benzo[d]thiazole]	580 nM	1680 nM
Clc1cccc(-c2nc[nH]c2-c2ccc3cn[nH]c3c2)c1 [Compound 23, 6-(4-(3-Chlorophenyl)-1H-imidazol-5-yl)-1H-indazole]	10 nM	30 nM
Cc1nc(-c2cc(F)c(F)c(F)c2)c(-c2ccc3ncsc3c2)[nH]1 [Compound 93, 6-(2-Methyl-4-(3,4,5-trifluorophenyl)-1H-imidazol-5-yl)benzo[d]thiazole]	300 nM	2340 nM
Cc1cccc(-c2ncn(C)c2-c2ccc3cn[nH]c3c2)c1 [Compound 42, 6-(1-Methyl-4-(m-tolyl)-1H-imidazol-5-yl)-1H-indazole]	30 nM	150 nM

Other lines, results leading:

IC50 [1]	IC50 [2]	Structure (SMILES)
66.3 nM	218 nM	Nc1nc(-c2cccc(Cl)c2)c(-c2ccc3nccn3c2)s1 [Compound 164, 4-(3-chlorophenyl)-5-(imidazo[1,2-a]pyridin-6-yl)thiazol-2-amine]
352 nM	1120 nM	COc1ccc(-c2nc(N)sc2-c2ccc3nccnc3c2)cc1 [Compound 182, 4-(4-methoxyphenyl)-5-(quinoxalin-6-yl)thiazol-2-amine]
46.8 nM	427 nM	Cc1cccc(-c2ncsc2-c2ccc3ncsc3c2)c1 [Compound 161, 6-(4-(m-tolyl)thiazol-5-yl)benzo[d]thiazole]
720 nM	3220 nM	CCc1nc(-c2cc(F)cc(F)c2)c(-c2ccc3ncsc3c2)[nH]1 [Compound 149, 6-(4-(3,5-Difluorophenyl)-2-ethyl-1H-imidazol-5-yl)benzo[d]thiazole]
22.9 nM	72.4 nM	Cc1cc(-c2nc(N)sc2-c2ccc3nccn3c2)ccc1F [Compound 155, 4-(4-fluoro-3-methylphenyl)-5-(imidazo[1,2-a]pyridin-6-yl)thiazol-2-amine]
268 nM	1280 nM	Nc1nc(-c2cccc(F)c2)c(-c2ccc3[nH]ncc3c2)s1 [Compound 179, 4-(3-fluorophenyl)-5-(1H-indazol-5-yl)thiazol-2-amine]
158 nM	600 nM	Nc1nc(-c2cccc(C(F)(F)F)c2)c(-c2ccc3ncsc3c2)s1 [Compound 176, 5-(benzo[d]thiazol-6-yl)-4-(3-(trifluoromethyl)phenyl)thiazol-2-amine]
154 nM	938 nM	Nc1nc(-c2cccc(C(F)(F)F)c2)c(-c2ccc3[nH]ncc3c2)s1 [Compound 175, 5-(1H-indazol-5-yl)-4-(3-(trifluoromethyl)phenyl)thiazol-2-amine]
402 nM	1160 nM	COc1cccc(-c2nc(N)sc2-c2ccc3nccn3c2)c1 [Compound 184, 5-(imidazo[1,2-a]pyridin-6-yl)-4-(3-methoxyphenyl)thiazol-2-amine]
336 nM	4550 nM	Fc1ccc(-c2ncsc2-c2ccc3ncsc3c2)cc1 [Compound 181, 6-(4-(4-fluorophenyl)thiazol-5-yl)benzo[d]thiazole]
365 nM	1480 nM	Nc1nc(-c2cccc(F)c2)c(-c2ccc3nccnc3c2)s1 [Compound 183, 4-(3-fluorophenyl)-5-(quinoxalin-6-yl)thiazol-2-amine]
301 nM	621 nM	Nc1nc(-c2cccc(C(F)(F)F)c2)c(-c2ccc3nccnc3c2)s1 [Compound 180, 5-(quinoxalin-6-yl)-4-(3-(trifluoromethyl)phenyl)thiazol-2-amine]
98.6 nM	656 nM	Nc1nc(-c2ccc(F)cc2)c(-c2ccc3nccnc3c2)s1 [Compound 170, 4-(4-fluorophenyl)-5-(quinoxalin-6-yl)thiazol-2-amine]
36.7 nM	171 nM	Cc1cc(-c2ncsc2-c2ccc3cn[nH]c3c2)ccc1F [Compound 159, 4-(4-fluoro-3-methylphenyl)-5-(1H-indazol-6-yl)thiazole]
590 nM	1400 nM	Fc1ccc(-c2nc(C(F)(F)F)[nH]c2-c2ccc3ncnn3c2)cc1 [Compound 151, 6-(4-(4-Fluorophenyl)-2-(trifluoromethyl)-1H-imidazol-5-yl)-[1,2,4]triazolo[1,5-a]pyridine]
